Where a SMILES comes first, the peptide text is derived from it.
Tests used:
Format in all cases: cell-based
[1] = target: Small ribosomal subunit protein uS2 (Homo sapiens) (UniProt P08865); test: Binding affinity to LAMR1 in human HT1080 cells assessed as maximal cell attachment to compound coated plates after 3 hrs by hemocytometer; settings: HT-1080
[2] = target: Small ribosomal subunit protein uS2 (Homo sapiens) (UniProt P08865); test: Binding affinity to LAMR1 in human HeLa cells assessed as maximal cell attachment to compound coated plates after 3 hrs by hemocytometer
[3] = target: Small ribosomal subunit protein uS2 (Mus musculus) (UniProt P14206); test: Binding affinity to LAMR1 in mouse B16-F10 cells assessed as maximal cell attachment to compound coated plates after 3 hrs by hemocytometer
[4] = target: Small ribosomal subunit protein uS2 (Homo sapiens) (UniProt P08865); test: Binding affinity to LAMR1 in human HT1080 cells assessed as maximal cell attachment to compound coated plates at 0.2 ug/well after 3 hrs by hemocytometer; settings: HT-1080
[5] = target: Small ribosomal subunit protein uS2 (Homo sapiens) (UniProt P08865); test: Binding affinity to LAMR1 in human HT1080 cells assessed as maximal cell attachment to compound coated plates at 20 ug/well after 3 hrs by hemocytometer; settings: HT-1080

Compound | Activity [1] | Activity [2] | Activity [3] | Activity [4] | Activity [5]
CC[C@H](C)[C@@H]1NC(=O)[C@H](Cc2ccc(O)cc2)NC(=O)[C@H](CC(N)=O)NC(=O)[C@H](CCCNC(=N)N)NC(=O)[C@H](CO)NC(=O)[C@@H]2CCCN2C1=O (cyclo(IPSRNY)) | 53% | 32% |  |  | 
CC[C@H](C)[C@@H]1NC(=O)[C@H](Cc2ccc(O)cc2)NC(=O)CNC(=O)[C@@H]2CCCN2C(=O)[C@H](CC(=O)O)NC(=O)[C@H](CCCNC(=N)N)NC(=O)[C@H](CO)NC(=O)[C@@H](CCC(=O)O)NC1=O | 62% |  |  |  | 
CC[C@H](C)[C@@H]1NC(=O)[C@H](Cc2ccc(O)cc2)NC(=O)CNC(=O)[C@@H]2CCCN2C(=O)[C@H](CC(=O)O)NC(=O)[C@H](CCCNC(=N)N)NC(=O)[C@H](CO)NC(=O)[C@@H](CCCCN)NC1=O | 45% |  |  |  | 
CC[C@H](C)[C@@H]1NC(=O)[C@H](Cc2ccc(O)cc2)NC(=O)[C@H](CC(N)=O)NC(=O)[C@H](CCCNC(=N)N)NC(=O)[C@H](CO)NC(=O)CNC1=O (cyclo(GSRNYI)) | 56% | 32% |  |  | 
CC[C@H](C)[C@@H]1NC(=O)[C@H](Cc2ccc(O)cc2)NC(=O)CNC(=O)[C@@H]2CCCN2C(=O)[C@H](CC(=O)O)NC(=O)[C@H](CCCNC(=N)N)NC(=O)[C@H](CO)NC(=O)CNC1=O (cyclo(DPGYIGSR)) | 67% | 40% | 62% |  | 
CC[C@H](C)[C@@H]1NC(=O)[C@H](Cc2ccc(O)cc2)NC(=O)[C@H]2CCCN2C(=O)[C@H](CCCNC(=N)N)NC(=O)[C@H](CO)NC(=O)[C@@H](CO)NC1=O | 76% |  |  |  | 
CC[C@H](C)[C@H](NC(=O)[C@@H](N)Cc1ccc(O)cc1)C(=O)NCC(=O)N[C@@H](CO)C(=O)N[C@@H](CCCNC(=N)N)C(=O)N[C@H](C)C(=O)N[C@H](CCSC)C(=O)O | 53% | 31% |  |  | 
CC[C@H](C)[C@@H]1NC(=O)[C@H](Cc2ccc(O)cc2)NC(=O)[C@H](CC(N)=O)NC(=O)[C@H](CCCNC(=N)N)NC(=O)[C@H](CO)NC(=O)[C@@H](CO)NC1=O | 81% | 46% | 45% | 20% | 40%
CC[C@H](C)[C@@H]1NC(=O)[C@H](Cc2ccc(O)cc2)NC(=O)[C@H](CC(N)=O)NC(=O)[C@H](CCCNC(=N)N)NC(=O)[C@H](CO)NC(=O)[C@@H](CCCCN)NC1=O | 64% | 29% |  |  | 
CC[C@H](C)[C@@H]1NC(=O)[C@H](Cc2ccc(O)cc2)NC(=O)CNC(=O)[C@@H]2CCCN2C(=O)[C@H](CC(=O)O)NC(=O)[C@H](CCCNC(=N)N)NC(=O)[C@H](CO)NC(=O)[C@@H](CO)NC1=O | 75% |  |  |  | 
CC[C@H](C)[C@@H]1NC(=O)[C@H](Cc2ccc(O)cc2)NC(=O)[C@H](CC(N)=O)NC(=O)[C@H](CCCNC(=N)N)NC(=O)[C@H](CO)NC(=O)[C@@H](CCC(=O)O)NC1=O | 76% | 43% | 58% |  | 
CC[C@H](C)[C@@H]1NC(=O)[C@H](Cc2ccc(O)cc2)NC(=O)CNC(=O)[C@H](CCCNC(=N)N)NC(=O)[C@H](CO)NC(=O)[C@@H](CO)NC1=O | 72% | 45% | 68% |  | 
CC[C@H](C)[C@@H]1NC(=O)[C@H](Cc2ccc(O)cc2)NC(=O)[C@H](CC(N)=O)NC(=O)[C@H](CCCNC(=N)N)NC(=O)[C@H](CO)NC(=O)[C@@H]2CCCN2C(=O)[C@H]([C@@H](C)CC)NC(=O)[C@H](Cc2ccc(O)cc2)NC(=O)[C@H](CC(N)=O)NC(=O)[C@H](CCCNC(=N)N)NC(=O)[C@H](CO)NC(=O)[C@@H]2CCCN2C1=O (cyclo(IPSRNYIPSRNY)) | 57% |  |  |  | 
CC[C@H](C)[C@@H]1NC(=O)[C@H](Cc2ccc(O)cc2)NC(=O)[C@H](CC(N)=O)NC(=O)[C@H](CCCNC(=N)N)NC(=O)[C@H](CO)NC(=O)[C@@H](CO)NC(=O)[C@H]([C@@H](C)CC)NC(=O)[C@H](Cc2ccc(O)cc2)NC(=O)[C@H](CC(N)=O)NC(=O)[C@H](CCCNC(=N)N)NC(=O)[C@H](CO)NC(=O)[C@@H](CO)NC1=O | 48% |  |  |  | 

Source: ChEMBL document CHEMBL1156786, “Conformationally constrained mimetics of laminin peptide YIGSR as precursors for antimetastatic disintegrins” (J Med Chem, 2009)
